Series [1] in a line: Luminescence Cell-Based Dose Retest to Confirm Inhibitors of Cancer Stem Cells. [Related pubchem assays (depositor defined):AID2717, AID2721]. The conditions noted are these: Homo sapiens. In kind it is functional.
Series [2] can be described thus: viability loss of HMLE_sh_eGFP cells – cell-based, luminescence, counter-screen for HMLE_sh_ECad selective toxicity project, dose response (AID 463074).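 Note: HMLE human mammary epithelial cells expressing control shRNA against eGFP.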 In kind it is functional, Homo sapiens. (A counterscreen serves to expose hits that act by an unwanted route or on another target.)
Series [3] addresses Intestinal-type alkaline phosphatase (Mus musculus, UniProt P24822). The series is described as follows: PubChem AID 488875. In kind it is functional.
The target in series [4] is T1, Alkaline phosphatase, tissue-nonspecific isozyme (Homo sapiens, UniProt P05186).
T1 sequence (P05186 whole entry): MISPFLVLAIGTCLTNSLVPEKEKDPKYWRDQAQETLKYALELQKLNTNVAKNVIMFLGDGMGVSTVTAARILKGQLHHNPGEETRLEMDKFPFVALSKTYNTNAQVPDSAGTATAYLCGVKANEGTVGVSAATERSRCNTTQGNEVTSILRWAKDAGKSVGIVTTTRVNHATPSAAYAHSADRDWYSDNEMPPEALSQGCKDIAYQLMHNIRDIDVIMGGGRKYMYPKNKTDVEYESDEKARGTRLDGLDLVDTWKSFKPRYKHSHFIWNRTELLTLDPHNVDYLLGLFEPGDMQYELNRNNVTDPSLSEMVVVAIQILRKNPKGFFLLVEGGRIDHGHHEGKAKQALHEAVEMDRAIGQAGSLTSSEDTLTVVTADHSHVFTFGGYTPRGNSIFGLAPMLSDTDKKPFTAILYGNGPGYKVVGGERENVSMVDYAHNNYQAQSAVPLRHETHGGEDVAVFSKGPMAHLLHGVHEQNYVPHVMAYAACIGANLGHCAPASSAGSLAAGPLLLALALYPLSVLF
The experiment in a line: inhibition of tissue-nonspecific alkaline phosphatase – biochemical, dose response (AID 488882). In kind it is functional.

Series [5] addresses T2, Intestinal-type alkaline phosphatase (Homo sapiens, UniProt P09923). The series is described as follows: Dose Response confirmation of uHTS hits from a small molecule inhibitors of human intestinal alkaline phosphatase via a luminescent assay. [Related pubchem assays (depositor defined):AID2544, AID2574]. In kind it is functional.
Series [6] addresses T2, Intestinal-type alkaline phosphatase. The series is described as follows: inhibition of human intestinal alkaline phosphatase – biochemical, luminescent, uHTS hits, set 2, dose response (AID 488793). In kind it is functional.
Series [7] addresses T3, Cytochrome P450 2D6 (Homo sapiens, UniProt P10635).
Series [8] concerns the target T3, Cytochrome P450 2D6. This is another data set of the same source.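 Note: CYP2D6 member of a cytochrome P450 panel assay.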
Series [9] in a line: Trypanosoma cruzi growth suppression in host cells – NIH3T3 host cells, beta-gal luminescence, confirmation (AID 2044).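 Note: intracellular parasites grown in NIH/3T3 mouse fibroblasts as host cells; luminescent beta-galactosidase reporter signal from transgenic T. cruzi replicating inside host cells; inhibitors lower the luminescence signal.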 In kind it is functional, cell-based.
Series [10] has as its system HEK293. The series is described as follows: inhibition of NOD1-driven NF-kB reporter – cell-based, luminescence, uHTS, primary screen (AID 1578). In kind it is functional. The conditions noted are these: Homo sapiens.
Series [11] addresses Nucleotide-binding oligomerization domain-containing protein 2 (Homo sapiens, UniProt Q9HC29). The experiment in a line: inhibition of NOD2-driven NF-kB reporter – cell-based, luminescence, uHTS, HEK293 (AID 1566). In kind it is functional.
The test system of the next series is A-375. The series is described as follows: MITF: Counter assay: A375 proliferation Measured in Cell-Based System Using Plate Reader - 2084-03_Inhibitor_Dose_DryPowder_Activity. [Related pubchem assays (depositor defined):AID488944]. In kind it is functional. The conditions noted are these: Homo sapiens.
The nature of series [12]: Vero E6 cell cytotoxicity, dose response, cytotoxicity control for non-replicating M. tuberculosis project, secondary assay (AID 492998). In kind it is functional, VeroE6. The conditions noted are these: Vero C1008.
Series [13] relates to HEK293. The series is described as follows: cells. The conditions noted are these: Homo sapiens. In kind it is functional, cell-based.
Series [14] deals with HEK293. The experiment in a line: NOD2 signaling inhibitors in MDP-stimulated cells, cell-based, uHTS, luminescence (AID 2001). In kind it is functional. The conditions noted are these: Homo sapiens.
In series [15] the test system is HEK293. The series is described as follows: cells. In kind it is functional, cell-based. The conditions noted are these: Homo sapiens. The source holds these as a separate data set.
A further series relates to INS1. The series is described as follows: INS-1E survival protection against cytokine death – cell-based, luminescence, retest, dose response (AID 449756).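 Note: cell death triggered by IL-1 beta plus TNF-alpha plus IFN-gamma mixture; protective hits raise ATP signal compared with cytokine alone wells.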 In kind it is functional. The conditions noted are these: Rattus norvegicus.
Series [16] in a line: cells. In kind it is functional, cell-based.
The nature of series [17]: NIH3T3 cell viability loss – ATP luminescence, mouse fibroblasts, counter-screen, dose response (AID 2010).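 Note: cells exposed to compound for about 90 hours before reading.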 In kind it is functional, cell-based.
Series [18] in a line: THP-1 cell cytotoxicity, dose response, cytotoxicity control for non-replicating M. tuberculosis project (AID 489025). In kind it is functional.
For series [19], the system named is Streptococcus sp. 'group A'. The series is described as follows: Streptococcus pyogenes SK(-)GAS viability under kanamycin – luminescence, BacTiterGlo, confirmation, counter-screen for streptokinase expression inhibitor project, dose response (AID 1900). In kind it is functional, organism-based.
The next series concerns Streptococcus. The series is described as follows: GAS UMAA2166 growth inhibition – luminescence, BacTiterGlo, counter-screen for streptokinase expression inhibitor project, dose response (AID 1915).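 Note: potency for reduction of bacterial viability or growth.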 In kind it is functional, organism-based.
The next series concerns the target Beta-galactosidase (Escherichia coli, UniProt Q8VNN2). The experiment in a line: detection-enzyme interference by beta-gal modulators – biochemical, E. coli enzyme, set 3, artefact control for CCR6 antagonist project, dose response (AID 504712). In kind it is functional.
Series [20] has as its system HEK293. The experiment in a line: cells. The conditions noted are these: Homo sapiens. In kind it is functional, cell-based. This is another data set of the same source.
Series [21] is described as follows: HepG2 cell cytotoxicity, dose response, cytotoxicity control for non-replicating M. tuberculosis project (AID 489018). In kind it is functional. The conditions noted are these: Mycobacterium tuberculosis.
Series [22] addresses T4, Microphthalmia-associated transcription factor (Homo sapiens, UniProt O75030).
T4 sequence (O75030 whole entry): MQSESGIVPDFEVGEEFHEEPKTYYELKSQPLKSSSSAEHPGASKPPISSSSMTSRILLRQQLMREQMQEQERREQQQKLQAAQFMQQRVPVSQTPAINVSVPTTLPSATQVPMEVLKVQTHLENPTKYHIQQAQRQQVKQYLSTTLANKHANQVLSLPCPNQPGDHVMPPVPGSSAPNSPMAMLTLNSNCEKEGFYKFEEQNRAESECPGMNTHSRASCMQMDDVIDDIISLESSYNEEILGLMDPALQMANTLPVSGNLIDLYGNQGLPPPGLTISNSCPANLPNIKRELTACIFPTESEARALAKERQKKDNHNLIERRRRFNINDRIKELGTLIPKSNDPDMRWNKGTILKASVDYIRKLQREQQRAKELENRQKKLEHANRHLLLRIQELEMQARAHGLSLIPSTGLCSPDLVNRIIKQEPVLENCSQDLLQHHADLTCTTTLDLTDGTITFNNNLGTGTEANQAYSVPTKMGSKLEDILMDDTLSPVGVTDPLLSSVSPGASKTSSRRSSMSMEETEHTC
The experiment in a line: reducers of TRPM1 reporter luminescence, concentration series – cell-based, SK-MEL-5, cherry-picked, set 3, MITF inhibitor project, dose response (AID 493073).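 Note: SK-MEL-5 melanoma cells with luciferase driven by the MITF target TRPM1 promoter.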 In kind it is functional.

A further series addresses T5, Streptokinase A (Streptococcus pyogenes serotype M1, UniProt P10520).
T5 sequence (P10520 whole entry): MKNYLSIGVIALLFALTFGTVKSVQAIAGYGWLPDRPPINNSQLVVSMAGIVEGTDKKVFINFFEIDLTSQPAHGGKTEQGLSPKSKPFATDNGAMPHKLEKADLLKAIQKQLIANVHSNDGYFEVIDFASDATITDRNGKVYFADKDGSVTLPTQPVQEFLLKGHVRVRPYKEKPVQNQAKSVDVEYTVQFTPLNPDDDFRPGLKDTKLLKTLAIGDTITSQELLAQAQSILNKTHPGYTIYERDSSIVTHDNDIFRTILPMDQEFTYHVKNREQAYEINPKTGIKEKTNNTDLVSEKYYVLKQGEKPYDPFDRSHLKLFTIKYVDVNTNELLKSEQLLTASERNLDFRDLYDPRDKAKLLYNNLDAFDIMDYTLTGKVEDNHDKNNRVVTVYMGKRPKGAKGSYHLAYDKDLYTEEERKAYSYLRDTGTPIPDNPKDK
The series is described as follows: viability-normalized secreted streptokinase activity reduction – plasminogen activation absorbance, OD405, dose response (AID 1914).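 Note: secreted streptokinase activity via plasminogen activation per viability signal from cell pellet.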 In kind it is functional, Streptococcus pyogenes M1 GAS.

Series [23] in a line: cells. In kind it is functional, cell-based. This is another data set of the same source.
Series [24] in a line: cells. In kind it is functional.
For series [25], the target named is C-C chemokine receptor type 6 (Homo sapiens, UniProt P51684). The series is described as follows: antagonism of CCR6 beta-arrestin recruitment – cell-based, luminescent beta-arrestin readout, dose response (AID 504728). In kind it is functional. (In general: Arrestin recruitment assays detect the binding of arrestin to an activated receptor.)
Sequence of C-C chemokine receptor type 6 (P51684 whole entry): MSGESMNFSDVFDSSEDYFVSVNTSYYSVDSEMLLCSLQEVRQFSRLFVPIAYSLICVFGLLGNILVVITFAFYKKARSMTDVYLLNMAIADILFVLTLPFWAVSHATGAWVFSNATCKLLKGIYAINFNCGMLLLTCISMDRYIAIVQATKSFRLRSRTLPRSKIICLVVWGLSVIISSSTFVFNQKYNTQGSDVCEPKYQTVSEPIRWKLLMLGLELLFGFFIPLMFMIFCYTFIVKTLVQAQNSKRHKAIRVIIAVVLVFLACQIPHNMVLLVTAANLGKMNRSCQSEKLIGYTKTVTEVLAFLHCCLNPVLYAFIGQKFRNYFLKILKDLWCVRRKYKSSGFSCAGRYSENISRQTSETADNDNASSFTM
In another series the target is Nonstructural protein 1 (Influenza A virus, UniProt Q194T2). In kind it is functional, Influenza A virus (A/California/07/2009(H1N1)).
Sequence of Nonstructural protein 1 (Q194T2 whole entry): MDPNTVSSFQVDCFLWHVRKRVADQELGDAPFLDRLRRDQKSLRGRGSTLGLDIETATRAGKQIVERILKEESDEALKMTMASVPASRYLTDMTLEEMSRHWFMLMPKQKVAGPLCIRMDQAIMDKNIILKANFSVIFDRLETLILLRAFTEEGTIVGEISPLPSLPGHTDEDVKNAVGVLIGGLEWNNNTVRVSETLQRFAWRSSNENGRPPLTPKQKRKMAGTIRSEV

Active and inactive are the calls of the source. A value given as a limit tells only on which side of the number the result lay.

The values below come from ChEMBL document CHEMBL1201862, “PubChem BioAssay data set” (2004).

T2 sequence (P09923 whole entry): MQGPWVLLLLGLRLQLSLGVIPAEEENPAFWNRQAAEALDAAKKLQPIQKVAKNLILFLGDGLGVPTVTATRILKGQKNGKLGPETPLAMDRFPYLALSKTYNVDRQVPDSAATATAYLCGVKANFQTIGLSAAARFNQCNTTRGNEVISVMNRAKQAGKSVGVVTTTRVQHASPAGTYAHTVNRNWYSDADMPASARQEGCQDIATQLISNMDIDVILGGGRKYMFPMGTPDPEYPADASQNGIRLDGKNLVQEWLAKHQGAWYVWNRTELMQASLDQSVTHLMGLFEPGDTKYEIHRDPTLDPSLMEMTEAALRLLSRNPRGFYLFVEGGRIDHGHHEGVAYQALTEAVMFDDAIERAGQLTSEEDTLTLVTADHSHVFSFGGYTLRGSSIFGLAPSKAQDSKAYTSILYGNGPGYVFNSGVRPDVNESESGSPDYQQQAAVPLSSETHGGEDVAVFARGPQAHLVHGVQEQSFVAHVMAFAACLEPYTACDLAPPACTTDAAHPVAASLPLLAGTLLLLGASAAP
T3 sequence (P10635 whole entry): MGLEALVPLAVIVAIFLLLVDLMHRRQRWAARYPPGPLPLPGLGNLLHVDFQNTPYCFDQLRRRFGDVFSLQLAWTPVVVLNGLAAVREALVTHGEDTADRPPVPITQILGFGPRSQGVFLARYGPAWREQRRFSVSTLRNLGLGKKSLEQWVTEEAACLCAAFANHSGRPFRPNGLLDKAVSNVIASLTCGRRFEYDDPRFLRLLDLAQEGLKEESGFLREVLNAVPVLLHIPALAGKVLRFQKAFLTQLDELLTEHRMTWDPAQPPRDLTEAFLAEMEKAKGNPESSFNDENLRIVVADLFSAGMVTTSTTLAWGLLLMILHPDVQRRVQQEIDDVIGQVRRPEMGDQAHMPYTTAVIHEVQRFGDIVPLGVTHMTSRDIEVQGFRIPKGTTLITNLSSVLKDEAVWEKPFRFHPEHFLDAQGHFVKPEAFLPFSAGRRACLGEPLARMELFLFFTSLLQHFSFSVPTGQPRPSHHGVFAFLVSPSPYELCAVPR
Sequence of Intestinal-type alkaline phosphatase (Mus musculus, UniProt P24822) (P24822 whole entry): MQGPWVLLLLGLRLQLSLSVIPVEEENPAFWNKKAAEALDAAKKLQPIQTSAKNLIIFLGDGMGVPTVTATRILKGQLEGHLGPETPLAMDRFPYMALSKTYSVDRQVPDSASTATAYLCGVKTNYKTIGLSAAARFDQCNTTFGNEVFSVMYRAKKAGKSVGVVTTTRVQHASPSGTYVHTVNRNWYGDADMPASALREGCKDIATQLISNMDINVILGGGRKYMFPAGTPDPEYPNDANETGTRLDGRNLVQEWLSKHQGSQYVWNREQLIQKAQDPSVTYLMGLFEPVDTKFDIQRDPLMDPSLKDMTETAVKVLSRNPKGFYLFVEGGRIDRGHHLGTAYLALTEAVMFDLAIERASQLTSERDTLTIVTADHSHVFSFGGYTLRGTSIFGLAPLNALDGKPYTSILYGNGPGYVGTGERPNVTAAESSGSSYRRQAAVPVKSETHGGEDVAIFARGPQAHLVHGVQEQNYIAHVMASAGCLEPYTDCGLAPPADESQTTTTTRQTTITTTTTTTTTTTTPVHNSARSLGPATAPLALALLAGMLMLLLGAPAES
Sequence of Nucleotide-binding oligomerization domain-containing protein 2 (Q9HC29 whole entry, the tested form may be a part): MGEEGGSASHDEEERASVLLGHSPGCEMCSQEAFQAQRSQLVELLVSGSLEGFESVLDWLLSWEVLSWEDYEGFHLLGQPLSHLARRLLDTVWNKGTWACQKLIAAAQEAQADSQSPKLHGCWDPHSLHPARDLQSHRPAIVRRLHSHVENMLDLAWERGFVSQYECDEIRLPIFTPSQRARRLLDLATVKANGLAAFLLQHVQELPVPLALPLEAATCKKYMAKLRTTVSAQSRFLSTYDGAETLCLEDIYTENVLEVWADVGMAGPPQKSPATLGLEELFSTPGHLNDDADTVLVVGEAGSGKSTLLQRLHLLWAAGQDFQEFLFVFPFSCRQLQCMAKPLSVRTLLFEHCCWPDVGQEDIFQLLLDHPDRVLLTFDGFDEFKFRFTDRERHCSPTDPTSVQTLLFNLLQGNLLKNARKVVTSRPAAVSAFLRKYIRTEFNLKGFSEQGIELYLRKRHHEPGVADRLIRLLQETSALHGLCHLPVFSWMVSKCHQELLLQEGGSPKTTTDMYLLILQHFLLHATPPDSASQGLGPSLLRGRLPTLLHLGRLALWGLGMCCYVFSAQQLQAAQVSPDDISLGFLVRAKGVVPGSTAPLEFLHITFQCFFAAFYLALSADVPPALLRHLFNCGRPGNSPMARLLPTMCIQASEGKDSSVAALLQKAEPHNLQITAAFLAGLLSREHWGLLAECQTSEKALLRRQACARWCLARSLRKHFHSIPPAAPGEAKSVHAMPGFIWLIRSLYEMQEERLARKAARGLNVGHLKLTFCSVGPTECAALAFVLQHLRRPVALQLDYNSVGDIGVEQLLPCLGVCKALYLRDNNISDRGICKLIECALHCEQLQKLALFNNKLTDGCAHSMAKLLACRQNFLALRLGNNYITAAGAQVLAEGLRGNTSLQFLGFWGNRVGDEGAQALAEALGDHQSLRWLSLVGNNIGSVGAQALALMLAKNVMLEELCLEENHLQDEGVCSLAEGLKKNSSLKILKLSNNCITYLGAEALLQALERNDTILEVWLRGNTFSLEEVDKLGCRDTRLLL
Sequence of Beta-galactosidase (Q8VNN2 whole entry): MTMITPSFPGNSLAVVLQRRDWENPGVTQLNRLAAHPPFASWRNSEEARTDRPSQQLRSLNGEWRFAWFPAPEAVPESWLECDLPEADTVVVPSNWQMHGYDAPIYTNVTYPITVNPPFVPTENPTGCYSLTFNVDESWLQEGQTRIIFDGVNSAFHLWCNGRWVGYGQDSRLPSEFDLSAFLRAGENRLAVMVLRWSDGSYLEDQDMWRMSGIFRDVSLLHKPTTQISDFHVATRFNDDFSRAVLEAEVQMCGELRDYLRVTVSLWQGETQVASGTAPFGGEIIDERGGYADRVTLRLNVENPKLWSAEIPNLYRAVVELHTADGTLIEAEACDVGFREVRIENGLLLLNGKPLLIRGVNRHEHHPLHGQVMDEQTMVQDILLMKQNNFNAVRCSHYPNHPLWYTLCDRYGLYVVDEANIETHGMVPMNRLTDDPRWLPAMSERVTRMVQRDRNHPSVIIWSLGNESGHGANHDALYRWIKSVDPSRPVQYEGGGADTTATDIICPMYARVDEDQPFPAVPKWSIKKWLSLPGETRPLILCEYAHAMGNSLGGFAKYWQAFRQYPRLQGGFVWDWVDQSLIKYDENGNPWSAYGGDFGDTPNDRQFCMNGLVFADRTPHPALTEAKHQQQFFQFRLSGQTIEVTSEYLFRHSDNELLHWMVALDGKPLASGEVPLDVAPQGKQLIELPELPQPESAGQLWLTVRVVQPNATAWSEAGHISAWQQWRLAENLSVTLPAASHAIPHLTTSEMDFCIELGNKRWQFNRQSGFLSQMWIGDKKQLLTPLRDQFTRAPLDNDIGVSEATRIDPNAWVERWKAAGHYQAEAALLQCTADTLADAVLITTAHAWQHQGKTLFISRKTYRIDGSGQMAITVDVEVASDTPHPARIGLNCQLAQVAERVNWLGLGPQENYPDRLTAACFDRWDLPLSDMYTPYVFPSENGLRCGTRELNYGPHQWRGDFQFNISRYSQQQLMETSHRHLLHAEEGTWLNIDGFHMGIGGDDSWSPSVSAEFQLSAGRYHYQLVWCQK

By AC50 is commonly meant the concentration giving half of the maximal activity seen. In the case of `COc1ccc(-c2ccc3oc(-c4ccc(OC)cc4)c(C#CC4(O)CCCCC4)c3c2)cc1`, the concentration at half-maximal activity (AC50) in [1] was 5.32 µM (active); in series [2] it was 29.8 µM (active).
In general, EC50 refers to the midpoint of the concentration-response curve. In general, IC50 refers to the concentration that inhibits the measured activity by half. As for `O=C(O)c1ccccc1C(=O)Nc1cc(-c2ccccc2)n[nH]1`, the EC50 in series [3] is > 100 µM (inactive). The IC50 was 32.7 µM (active) in [4], 10.5 µM (inactive) in series [5] and 58.5 µM (active) in series [6].
On to `CC(C)(C)c1o[nH]c(=O)c1C[C@H](N)C(=O)O`, for which the half-maximal activity concentration (AC50) at Cytochrome P450 2D6 [7] is 1.58 µM (inconclusive); on Cytochrome P450 2D6 [8] it was “inconclusive”.
By CC50 is commonly meant the concentration giving 50% cytotoxicity. On to `O=[N+]([O-])c1cc(Cl)cc(/C=N\Nc2ccccn2)c1O`, for which the half-maximal effective concentration (EC50) was 0.204 µM (active) in series [9]; 9.12 µM (active) with HEK293 [10]; > 20 µM (inactive) in [11]; 11.8 µM (active) in the series “cells [16]”; 5.6 µM (active) in [17]; 3.56 µM (active) in [19]. Further, the results for the 50% effective concentration (EC50) in the series on Streptococcus, on Streptokinase A and in the series “cells [23]” were 7.53 µM (active), 11.1 µM (active) and > 350 µM (not active), respectively. The figures for the half-maximal activity concentration (AC50) (in the series on A-375; with INS1; in series [22]) were 40.6 µM (active), 0.964 µM (active) and 4.49 µM (active), respectively. The 50% cytotoxic concentration (CC50) in series [12] was 1.24 µM (active); in [18], 0.147 µM (active); in series [21], 0.987 µM (active). For the same molecule, the IC50 with HEK293 [13] is > 20 µM (inactive); in the series on HEK293 [14] it was > 20 µM (inactive); in the series with HEK293 [15], > 20 µM (inactive); on Beta-galactosidase, > 66.6 µM (inactive); in the series on HEK293 [20] it was > 20 µM (inactive); in “cells [24]”, 6.12 µM (active). Moreover, the IC50 in [25] is > 66.6 µM (inactive); on Nonstructural protein 1, 3.89 µM (active).
